Reference: patent publication US10016434B2, “Methods for the treatment of HER2 amplified cancer” (Pharmacyclics LLC, priority 2013, dated 2018)
Entries after “also recorded” stand apart in the source; their conditions may differ. Where two headings read alike, the source gives them in different places.

Columns and labels:
[1] = system: HER2 and HER4 activation in BT-474 cells; experiment: HER2 and HER4 activation assessed by phosphorylation of downstream targets (FIG. 16); format: cell-based; conditions: BT-474, ibrutinib compared to AVL-292
[2] = system: EGFR, HER2, HER4 and downstream targets (MEK, Akt signaling pathway); experiment: Signaling pathway inhibition (FIGS. 19-21); format: cell-based; conditions: for inhibition of MEK and Akt signaling pathway compared with EGFR and HER2 signaling pathway: FIG. 21
[3] = target: T1, BTK (Homo sapiens, UniProt Q06187); experiment: Covalent binding to Btk, DoHH2 cells with PCI-33380 (FIG. 24); conditions: inhibitors 1 h, then PCI-33380 2 uM 30 min
T1 construct: endogenous in cells; host or cells: DoHH2

[4] = target: Erb4 (Homo sapiens, UniProt Q15303); experiment: Kinase activity assay (LabChip platform, Nanosyn)
[5] = target: ErB2 (Homo sapiens, UniProt P04626); experiment: Kinase activity assay (LabChip platform, Nanosyn); conditions: recombinant enzyme 5 nM, substrate 1 μM
[6] = system: BT-474 cells; experiment: Cell growth inhibition wash out assay; format: cell-based; conditions: BT-474, 1 hour exposure (0.1, 0.25, 0.5 μM), 6 days culture
[7] = system: SK-BR3 cells; experiment: Cell growth inhibition wash out assay; format: cell-based; conditions: SK-BR3, 1 hour exposure (0.1, 0.25, 0.5 μM), 6 days culture
[8] = system: HER signaling pathway; experiment: One hour treatment followed by washout, signaling pathways (FIG. 33); format: cell-based
[9] = system: MDA-MB-453 cells; experiment: Resistance induced by heregulin; format: cell-based; conditions: MDA-MB-453, higher concentration of ibrutinib
[10] = system: MDA-MB-453 cells; experiment: Cell proliferation assay with alamar blue
[11] = system: MDA-MB-453 xenograft; experiment: Mouse MDA-MB-453 xenograft; format: in vivo
[12] = system: SK-BR3 cells; experiment: Cell proliferation assay with alamar blue; conditions: SK-BR3, 3 days continuous exposure
[13] = target: LCK (Homo sapiens, UniProt P06239); experiment: LCK dialysis assay; format: biochemical; conditions: 10 nM or 100 nM, 1 h pre-incubation, 24 h dialysis
Method: Control samples included: DMSO+5 nM LCK dialyzed in the identical manner. […] Initial velocity was determined in the samples.

[14] = target: TXK (Homo sapiens, UniProt P42681); experiment: Kinase activity assay (LabChip platform, Nanosyn); format: biochemical; conditions: recombinant enzyme 5 nM, substrate 1 μM
[15] = system: Btk signaling pathways in Mino cells; experiment: Signaling pathways in B cells (FIG. 23); format: cell-based
[16] = target: HER4 (Homo sapiens, UniProt Q15303); experiment: HER4 dialysis assay; format: biochemical; conditions: 10 nM or 100 nM, 1 h pre-incubation, 24 h dialysis
[17] = target: EGFR (Homo sapiens, UniProt P00533); experiment: EGFR dialysis assay; format: biochemical; conditions: 10 nM or 100 nM, 1 h pre-incubation, 24 h dialysis
Method: Control samples included: DMSO+5 nM EGFR dialyzed in the identical manner. […] Initial velocity was determined in the samples.

[18] = system: ErbB kinases and down-stream signaling pathways; experiment: Washout experiment, immunoblotting of total and phosphorylated proteins (FIG. 10); format: cell-based; conditions: BT474 and SKBR-3, 0.1 or 0.5 μM, various times, then cultured additional 2 hours
Method: Cells were washed once with cold PBS and lysed in 1× sample buffer (Invitrogen). The whole cell lysate was boiled, sonicated, and then loaded onto a 4-15% gradient SDS-PAGE gel. The proteins were transferred to PVDF membrane. After probing with antibodies, the detection was conducted using an Odyssey […] (Li-Cor). Paired mouse and rabbit antibodies were used to probe the total and corresponding phosphorylated proteins.

[19] = system: BT-474 cells; experiment: Cell proliferation assay with alamar blue; conditions: BT-474, 3 days continuous exposure
[20] = system: aldehyde dehydrogenase (ALDH) in BT-474 cells; experiment: Aldefluor assay
[21] = system: BT-474 cells; experiment: Tumorsphere culture; format: cell-based; conditions: BT-474, 1 hour treatment, wash out, seven days culture
[22] = target: JAK3 (Homo sapiens, UniProt P52333); experiment: Kinase activity assay (LabChip platform, Nanosyn); format: biochemical; conditions: recombinant enzyme 5 nM, substrate 1 μM
[23] = target: EGFR (ErbB1) (Homo sapiens, UniProt P00533); experiment: Kinase activity assay (LabChip platform, Nanosyn); conditions: recombinant enzyme 5 nM, substrate 1 μM
[24] = target: TEC (Homo sapiens, UniProt P42680); experiment: Kinase activity assay (LabChip platform, Nanosyn); format: biochemical; conditions: recombinant enzyme 5 nM, substrate 1 μM
[25] = system: BT-474 cells; experiment: Resistance induced by heregulin; format: cell-based; conditions: BT-474, higher concentration of ibrutinib
[26] = target: BLK (Homo sapiens, UniProt P51451); experiment: Kinase activity assay (LabChip platform, Nanosyn); format: biochemical; conditions: recombinant enzyme 5 nM, substrate 1 μM
[27] = system: UACC-893 cells; experiment: Cell proliferation assay with alamar blue; format: cell-based; conditions: UACC-893, 3 days continuous exposure
[28] = system: BT-474 cells; experiment: Cell cycle analysis; format: cell-based; conditions: BT-474, 1 h exposure, measured at 24 h
[29] = target: ITK (Homo sapiens, UniProt Q08881); experiment: Kinase activity assay (LabChip platform, Nanosyn); format: biochemical; conditions: recombinant enzyme 5 nM, substrate 1 μM
[30] = system: BT-474 cells; experiment: Apoptosis assay (annexin-V / sub G0); format: cell-based
[31] = target: ErbB kinases; experiment: Separate dialysis experiment on kinase inhibition (data not shown); format: biochemical
[32] = system: SK-BR3 cells; experiment: Cell cycle analysis; format: cell-based; conditions: SK-BR3, 1 h exposure, measured at 24 h

Chain of Erb4 (Q15303 26-1292 isoform Q15303-3 limits assumed): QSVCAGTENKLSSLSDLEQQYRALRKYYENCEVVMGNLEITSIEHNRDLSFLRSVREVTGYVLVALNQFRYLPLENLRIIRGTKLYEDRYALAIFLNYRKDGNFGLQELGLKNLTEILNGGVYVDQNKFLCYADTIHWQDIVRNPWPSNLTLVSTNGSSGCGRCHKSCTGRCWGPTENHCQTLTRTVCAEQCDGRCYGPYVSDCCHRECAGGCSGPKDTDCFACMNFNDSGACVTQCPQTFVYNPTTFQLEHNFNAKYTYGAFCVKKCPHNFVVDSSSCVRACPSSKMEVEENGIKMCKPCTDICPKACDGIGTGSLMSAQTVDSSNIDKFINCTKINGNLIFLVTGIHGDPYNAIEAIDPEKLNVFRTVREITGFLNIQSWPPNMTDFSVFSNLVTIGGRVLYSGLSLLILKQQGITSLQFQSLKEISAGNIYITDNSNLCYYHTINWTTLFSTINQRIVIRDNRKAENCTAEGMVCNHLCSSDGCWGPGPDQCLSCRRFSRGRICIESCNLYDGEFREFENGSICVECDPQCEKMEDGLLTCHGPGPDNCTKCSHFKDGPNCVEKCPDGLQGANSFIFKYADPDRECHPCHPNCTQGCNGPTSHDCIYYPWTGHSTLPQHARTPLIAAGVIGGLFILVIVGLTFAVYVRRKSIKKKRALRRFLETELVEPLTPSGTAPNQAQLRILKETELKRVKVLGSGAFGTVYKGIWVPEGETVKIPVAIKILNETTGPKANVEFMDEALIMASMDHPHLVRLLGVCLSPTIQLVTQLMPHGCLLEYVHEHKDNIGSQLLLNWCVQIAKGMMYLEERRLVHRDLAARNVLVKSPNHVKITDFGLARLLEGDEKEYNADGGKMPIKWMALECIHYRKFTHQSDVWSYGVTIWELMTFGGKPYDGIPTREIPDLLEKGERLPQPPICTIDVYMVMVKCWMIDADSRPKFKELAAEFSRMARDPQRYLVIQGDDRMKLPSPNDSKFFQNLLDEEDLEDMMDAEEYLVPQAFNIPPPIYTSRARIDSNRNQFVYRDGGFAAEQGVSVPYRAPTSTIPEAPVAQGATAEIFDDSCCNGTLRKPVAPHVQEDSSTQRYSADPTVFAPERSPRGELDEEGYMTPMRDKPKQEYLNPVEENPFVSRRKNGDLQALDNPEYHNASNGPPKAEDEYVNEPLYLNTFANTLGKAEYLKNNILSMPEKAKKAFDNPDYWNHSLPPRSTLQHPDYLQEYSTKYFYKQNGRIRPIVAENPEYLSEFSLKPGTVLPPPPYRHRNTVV
T1 sequence (Q06187 whole entry): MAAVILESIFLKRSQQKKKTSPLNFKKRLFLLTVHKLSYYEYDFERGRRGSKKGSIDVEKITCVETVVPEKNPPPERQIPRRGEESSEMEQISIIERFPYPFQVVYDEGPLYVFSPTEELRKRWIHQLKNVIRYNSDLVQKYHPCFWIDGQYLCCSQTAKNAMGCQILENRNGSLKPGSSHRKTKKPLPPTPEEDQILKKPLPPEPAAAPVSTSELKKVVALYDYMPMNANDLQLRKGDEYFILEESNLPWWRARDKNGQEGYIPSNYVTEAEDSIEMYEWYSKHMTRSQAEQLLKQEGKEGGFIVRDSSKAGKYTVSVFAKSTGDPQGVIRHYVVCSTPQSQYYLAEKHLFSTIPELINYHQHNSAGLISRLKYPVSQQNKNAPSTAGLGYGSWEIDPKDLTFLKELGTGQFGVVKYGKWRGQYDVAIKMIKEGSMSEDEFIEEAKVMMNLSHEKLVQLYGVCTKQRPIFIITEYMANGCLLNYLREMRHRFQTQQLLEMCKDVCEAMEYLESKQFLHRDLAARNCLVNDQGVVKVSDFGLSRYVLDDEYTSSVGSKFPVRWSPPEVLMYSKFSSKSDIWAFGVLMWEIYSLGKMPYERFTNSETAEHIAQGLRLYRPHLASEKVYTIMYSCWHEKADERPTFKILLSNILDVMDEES
Chain of LCK (P06239 whole entry, species assumed): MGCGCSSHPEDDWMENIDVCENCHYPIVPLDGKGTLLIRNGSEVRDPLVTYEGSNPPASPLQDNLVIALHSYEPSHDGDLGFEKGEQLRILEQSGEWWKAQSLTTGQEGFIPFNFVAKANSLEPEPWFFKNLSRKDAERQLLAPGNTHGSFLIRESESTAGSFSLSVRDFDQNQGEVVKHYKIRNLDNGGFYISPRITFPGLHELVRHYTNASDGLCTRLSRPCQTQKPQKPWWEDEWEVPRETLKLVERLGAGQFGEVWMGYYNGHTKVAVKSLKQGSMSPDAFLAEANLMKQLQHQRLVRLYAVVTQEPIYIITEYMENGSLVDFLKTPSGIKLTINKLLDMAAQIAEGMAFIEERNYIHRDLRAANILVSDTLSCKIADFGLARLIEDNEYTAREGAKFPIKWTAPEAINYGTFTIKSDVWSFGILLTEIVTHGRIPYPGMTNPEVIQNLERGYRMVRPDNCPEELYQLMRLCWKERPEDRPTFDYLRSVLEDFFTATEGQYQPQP
Chain of EGFR (ErbB1) (P00533 25-1210): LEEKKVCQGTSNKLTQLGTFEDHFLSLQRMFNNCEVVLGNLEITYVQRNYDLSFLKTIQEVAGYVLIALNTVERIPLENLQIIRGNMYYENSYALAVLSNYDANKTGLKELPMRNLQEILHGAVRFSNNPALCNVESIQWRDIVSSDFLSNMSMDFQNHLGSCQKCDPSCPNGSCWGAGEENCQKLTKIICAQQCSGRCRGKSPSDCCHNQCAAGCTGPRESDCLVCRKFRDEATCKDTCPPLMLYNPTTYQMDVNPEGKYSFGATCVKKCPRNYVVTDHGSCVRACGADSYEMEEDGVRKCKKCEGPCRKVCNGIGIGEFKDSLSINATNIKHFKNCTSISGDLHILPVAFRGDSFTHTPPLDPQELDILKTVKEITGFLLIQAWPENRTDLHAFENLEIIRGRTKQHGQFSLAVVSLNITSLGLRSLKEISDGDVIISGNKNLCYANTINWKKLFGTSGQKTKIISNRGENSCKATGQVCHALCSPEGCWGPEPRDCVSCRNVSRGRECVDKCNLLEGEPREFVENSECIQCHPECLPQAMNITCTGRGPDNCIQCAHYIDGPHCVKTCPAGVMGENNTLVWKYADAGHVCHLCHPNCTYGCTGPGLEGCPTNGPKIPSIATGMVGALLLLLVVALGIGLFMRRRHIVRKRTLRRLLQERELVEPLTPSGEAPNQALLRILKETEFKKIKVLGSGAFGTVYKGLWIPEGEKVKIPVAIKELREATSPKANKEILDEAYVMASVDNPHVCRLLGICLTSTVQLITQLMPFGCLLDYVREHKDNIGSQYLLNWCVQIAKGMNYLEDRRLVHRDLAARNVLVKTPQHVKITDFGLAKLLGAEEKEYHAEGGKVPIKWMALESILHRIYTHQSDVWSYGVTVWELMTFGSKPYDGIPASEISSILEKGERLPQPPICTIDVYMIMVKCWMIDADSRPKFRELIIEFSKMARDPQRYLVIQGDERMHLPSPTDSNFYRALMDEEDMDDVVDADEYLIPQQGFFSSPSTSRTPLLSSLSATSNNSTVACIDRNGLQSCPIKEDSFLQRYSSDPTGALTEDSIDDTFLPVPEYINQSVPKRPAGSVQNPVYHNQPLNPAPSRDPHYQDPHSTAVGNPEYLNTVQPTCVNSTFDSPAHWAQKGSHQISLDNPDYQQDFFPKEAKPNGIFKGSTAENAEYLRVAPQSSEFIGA
Chain of EGFR (P00533 25-1210): as above
Chain of HER4 (Q15303 26-1292 isoform Q15303-3 limits assumed): as the sequence (Q15303 26-1292 isoform Q15303-3 limits assumed) above

C=CC(=O)Nc1cccc(Nc2nc(Nc3ccc(OCCOC)cc3)ncc2F)c1 [AVL-292, reference compound]
inhibition of HER2 and HER4 activation (phosphorylation of downstream targets, such as AKT) [1]: only ibrutinib inhibited

COc1cc2ncnc(Nc3ccc(F)c(Cl)c3)c2cc1NC(=O)/C=C/CN1CCCCC1 [dacomitinib, reference compound]
inhibition of EGFR and downstream targets ([2]; FIG. 20): less effective
covalent binding to Btk [3]: did not

COc1cc2ncnc(Nc3ccc(F)c(Cl)c3)c2cc1OCCCN1CCOCC1 [gefitinib, reference compound]
HER4 inhibitory activity compared to ibrutinib ([4]; stated without source): lower HER2/4 inhibitory activity

C=CC(=O)N1CCC[C@@H](n2nc(-c3ccc(Oc4ccccc4)cc3)c3c(N)ncnc32)C1 [ibrutinib, (R)-1-(3-(4-amino-3-(4-phenoxyphenyl)-1H-pyrazolo[3,4-d]pyrimidin-1-yl)piperidin-1-yl)prop-2-en-1-one]
inhibition of ErB2 [5]: able to inhibit; also recorded: effective in inhibiting
IC50 toward EGFR compared with HER2 and HER4 ([2]; FIG. 19B): higher IC50
inhibition of MEK and Akt signaling pathway compared with EGFR and HER2 signaling pathway [2]: more potent inhibitor of MEK and Akt pathways than the EGFR and HER2 pathways
inhibition of MEK and Akt signaling pathway compared with EGFR and HER2 signaling pathway ([2]; listed as Ibrutinib): potent inhibitor of the MEK and Akt signaling pathway than of the EGFR and HER2 signaling pathway
growth inhibitory effect after wash out [6]: sustained and was dose dependent
growth inhibitory effect after wash out [7]: sustained and was dose dependent
inhibitory effect on HER signaling pathway after washout ([8]; day 6): lasting inhibitory effect even after day 6
inhibitory effect on HER signaling pathway after washout ([8]; day 6, listed as Ibrutinib): long-lasting inhibitory effect even after day 6
overcoming resistance induced by heregulin [9]: able to overcome resistance induced by heregulin
growth inhibitory effect ([10]; MDA-MB-453, 3 days continuous exposure): sensitive to the growth inhibitory effect; also recorded: confirmed ibrutinib inhibitory activity
inhibition of cell growth compared to gefitinib ([10]; MDA-MB-453, fluorescence-based assay): more potent than gefitinib
solid tumor growth (tumor volume) [11]: inhibited solid tumor growth
growth inhibitory effect [12]: sensitive to the growth inhibitory effect; also recorded: confirmed ibrutinib inhibitory activity
inhibition of Erb4 ([4]; recombinant enzyme 5 nM, substrate 1 μM): able to inhibit; also recorded: effective in inhibiting
reversibility of LCK inhibition after dialysis [13]: reversible inhibition
reversibility of LCK inhibition after dialysis ([13]; listed as Ibrutinib): reversibly inhibits
inhibition of TXK [14]: able to inhibit
inhibitory effect on Btk signaling pathways in B cells [15]: selective inhibitory effect
inhibitory effect on Btk signaling pathways in B cells ([15]; listed as Ibrutinib): selectively inhibits
reversibility of HER4 inhibition after dialysis [16]: irreversible inhibition
reversibility of HER4 inhibition after dialysis ([16]; listed as Ibrutinib): irreversibly inhibits
reversibility of EGFR inhibition after dialysis [17]: irreversible inhibition
reversibility of EGFR inhibition after dialysis ([17]; listed as Ibrutinib): irreversibly inhibits
inhibition of ErbB kinases and down-stream signaling pathways after washout [18]: persisted after ibrutinib washout, and was time and concentration dependent
growth inhibitory effect [19]: sensitive to the growth inhibitory effect; also recorded: confirmed ibrutinib inhibitory activity
putative stem-like subpopulation of breast cancer cells ([20]; BT-474, one hour or continuous treatment): decreased
aldehyde dehydrogenase activity ([20]; BT-474, short exposures to high concentrations or continuous exposure to low concentration): decreased aldehyde dehydrogenase activity
tumorsphere growth (size) [21]: inhibited tumorsphere growth
tumorsphere number [21]: without affecting tumorsphere number
inhibition of JAK3 [22]: able to inhibit
inhibition of EGFR (ErbB1) [23]: able to inhibit; also recorded: effective in inhibiting
inhibition of TEC [24]: able to inhibit
overcoming resistance induced by heregulin [25]: able to overcome resistance induced by heregulin
inhibition of HER2 and HER4 activation (phosphorylation of downstream targets, such as AKT) [1]: only ibrutinib inhibited HER2 and HER4 activation
inhibition of BLK [26]: able to inhibit
growth inhibitory effect [27]: sensitive to the growth inhibitory effect
cell cycle effect [28]: G1 arrest
inhibition of ITK [29]: able to inhibit
apoptosis (annexin-V positivity or sub G0) ([30]; BT-474, continuous treatment 3-day, with or without caspase inhibitor Q-VD-OPH): dramatic apoptosis which was caspase-dependent
apoptosis (cells in sub G0) ([30]; BT-474, one hour treatment, 6 days after the exposure): low level of apoptosis
kinase inhibition after dialysis [31]: dialysis resistant
cell cycle effect [32]: G1 arrest

CS(=O)(=O)CCNCc1ccc(-c2ccc3ncnc(Nc4ccc(OCc5cccc(F)c5)c(Cl)c4)c3c2)o1 [lapatinib]
covalent binding to Btk [3]: did not

CCOc1cc2ncc(C#N)c(Nc3ccc(OCc4ccccn4)c(Cl)c3)c2cc1NC(=O)/C=C/CN(C)C [neratinib]
covalent binding to Btk [3]: did not
